According to patent publication US20250281440A1, “METHOD TO IMPROVE GROWTH PERFORMANCE, LIVABILITY, CARCASS CHARACTERISTICS AND/OR MILK QUALITY IN SWINE” (NutriQuest, LLC, priority 2024, published 2025):
Several values for one entry are separate records, joined by “and”; a condition that tells them apart may be missing. Equal values may be shown once. Marks after values point to notes of the source that are not given here.

Assays:
[1] = Calculated wean-to-finish performance and greenhouse gas emissions, Pork Sustainability Calculator (Example 7); design: species or system pigs; settings: DMG @ 0.5 lb/ton in late finishing
Description: (§1) Animals produce greenhouse gases due to biological processes for growth and maintenance functions. Pig production would therefore be a source of greenhouse gases and wean to finish production would result in production of carbon dioxide, methane, and nitrous oxide emissions. Using the Iowa Pork Industry's sustainability calculator, we calculated the impact feedings of DMG in late finishing would have on greenhouse gas emissions. […] We then took similar estimates for early performance and estimated F/G and mortality for an entire grow-out period to use in the calculator. The calculator provides equivalent lb. of carbon dioxide per lb. or market weight for comparison purposes. By adding DMG in late finishing, carbon dioxide emissions were reduced by 3% during the entire wean to finish grow-out.

rats = settings: when folate was sufficient; cited from earlier work
lactating sows = assay: Serum non-esterified fatty acids (NEFA) in lactating sows (Example 6); assay type: in vivo, pigs; settings: 445 mg Na-DMG per day, measured at weaning
Description: Serum non-esterified fatty acids (NEFA) are molecules released from adipose tissue during periods of energy demand or catabolic status. In research of energy metabolism, NEFA level has been used as biomarker to assess balance between fat mobilization and energy expenditure.

broilers = settings: cited from earlier work
[2] = system: commercial finishing pigs; assay: Growth performance, livability and carcass characteristics of finishing pigs fed DMG (Example 3); assay type: in vivo; settings: for ADFI / Carcass yield / Closeout ADG / Closeout G/F / End BW / Fat depth / Fat-free carcass lean / Hot carcass weight / Loin depth / Non-selected pigs (lights and culls) / Morbidity / Mortality / Pigs sold to primary market: 8-wk
Description: To evaluate the impact of increasing dietary levels of 78% sodium dimethylglycine (DMG) on growth performance, livability, and carcass characteristics of commercial finishing pigs, a total of total of 1,115 mixed-sex finishing pigs (initial BW=70.1±1.8 kg) were housed in pens with 25 to 27 pigs per pen. Pens within block were assigned randomly to one of four dietary treatments containing 0 (Control), 0.25 (DMG_0.25), 0.5 (DMG_0.5) or 1.0 (DMG_1.0) g DMG/kg of feed with 11 replicates per treatment. This experiment extended over an 8-wk period until pigs were harvested at 125.4±0.8 kg of BW.
Data were analyzed using the MIXED procedure of SAS, and preplanned orthogonal contrasts were conducted to evaluate pairwise comparisons as well as linear and quadratic effects related to the increased levels of DMG. While no linear effect was observed, there was a tendency for a quadratic response in closeout feed efficiency (G/F, P=0.08) and the percentage of pigs with morbidity (P=0.06), with the most favorable responses found in pigs fed DMG_0.25 (Table 2).

finishing pigs = assay: Meta-analysis (3-trial combined) of morbidity, mortality and F/G in late finishing pigs fed Na-DMG (Examples 5 and 7); assay type: in vivo
Description: Three studies were compiled to evaluate the effects of dietary supplementation of Na-DMG (78%) on morbidity and mortality in finishing pigs. In each study, pigs were fed either a Control diet or diet containing Na-DMG at 0.50 lb/ton from approximately 180 lb of body weight until harvested at 290 lb for a period of 6 to 8 weeks. […] Reasons of morbidity and mortality included, but not limited to, lameness, ileitis, bacterial infection, injury, prolapse, intestinal torsion, stomach ulcers, abdominal rupture, bloat, failure to eat.
as §1

growing pigs = assay: Incidence of lameness in pigs fed DMG (Example 4); assay type: in vivo
Description: A total of 1,180 growing pigs (initial BW=51.4±1.0 lb) were housed in pens with 25 to 27 pigs per pen. […] This experiment extended over a 17-wk period until pigs were harvested at 292.5±1.7 lb of BW. Signs of lameness were recorded, and percentage of pigs removed to hospital pens due to lameness were calculated (Table 3).

sows = sows fed DMG from day 105 of gestation until day 3 of lactation; cited from earlier work
sows (PIC 1050) = assay: Milk fat content in sows fed Na-DMG (78%) (Example 2); assay type: in vivo, pigs
[3] = system: commercial finishing pigs (PIC 800×PIC 1050); assay: Carcass characteristics of finishing pigs fed increasing dietary 78% Na-DMG (Example 1); assay type: in vivo; settings: for 10th-rib backfat depth reduction (numerical) / Loin depth improvement compared to Control: carcasses; for Loin depth improvement compared to Control: P<0.05
Description: A study was conducted to evaluate the impact of increasing dietary levels of 78% Na-DMG on carcass characteristics of commercial finishing pigs (PIC 800×PIC 1050). A total of 723 mixed-sex finishing pigs (initial BW=179.5±1.0 lb) were housed in pens with 25 to 27 pigs per pen. […] This experiment extended over a 6-week period until pigs were harvested at 292.5±1.7 lb of BW.

[4] = Na-DMG 0.50 lb/ton, approx. 180 to 290 lb BW, 6 to 8 weeks

Compound: CN(C)CC(=O)O [DMG, N,N-dimethylglycine]
- Calculated wean-to-finish closeout F/G, % Change vs Control [1]: −2.6%
- Calculated wean-to-finish mortality, % Change vs Control [1]: −18.3%
- Calculated wean-to-finish mortality ([1]; early mortality rate of 2% combined): 3.08%
- Calculated wean-to-finish closeout F/G ([1]; feed budget of 353 lb per pig combined): 2.58
- Plasma homocysteine level (rats): significantly reduced
- Serum NEFA reduction compared to Control (lactating sows): 32%
- Nutrient digestibility (broilers): improved nutrient digestibility
- Carcass characteristics (hot carcass weight, carcass yield, fat depth, loin depth, fat-free carcass lean) ([2]; 0.25, 0.5 and 1.0 g DMG/kg feed vs Control): not different among treatments
- ADFI ([2]; 0.25 g DMG/kg feed): 3.00^b kg/day
- Carcass yield ([2]; 0.25 g DMG/kg feed): 72.6%
- Closeout ADG ([2]; 0.25 g DMG/kg feed): 1.01 kg/day and 1.01^y kg/day
- Closeout G/F ([2]; 0.25 g DMG/kg feed): 0.337
- End BW ([2]; 0.25 g DMG/kg feed): 126.4 kg
- Fat depth ([2]; 0.25 g DMG/kg feed): 16.6 mm
- Fat-free carcass lean ([2]; 0.25 g DMG/kg feed): 56.2%
- Hot carcass weight ([2]; 0.25 g DMG/kg feed): 93.5 kg
- Loin depth ([2]; 0.25 g DMG/kg feed): 62.5 mm
- Non-selected pigs (lights and culls) ([2]; 0.25 g DMG/kg feed): 8.7%
- Increase in closeout ADG compared with Control ([2]; 0.25 g DMG/kg feed, P=0.02): 6%
- Increase in closeout G/F compared with Control ([2]; 0.25 g DMG/kg feed, P=0.05): 4%
- ADFI ([2]; 0.5 g DMG/kg feed): 2.93^a kg/day
- Carcass yield ([2]; 0.5 g DMG/kg feed): 73.6%
- Closeout ADG ([2]; 0.5 g DMG/kg feed): 0.95^x kg/day
- Closeout G/F ([2]; 0.5 g DMG/kg feed): 0.326
- End BW ([2]; 0.5 g DMG/kg feed): 124.9 kg
- Fat depth ([2]; 0.5 g DMG/kg feed): 17.0 mm
- Fat-free carcass lean ([2]; 0.5 g DMG/kg feed): 56.0%
- Hot carcass weight ([2]; 0.5 g DMG/kg feed): 94.1 kg
- Loin depth ([2]; 0.5 g DMG/kg feed): 62.2 mm
- Morbidity ([2]; 0.5 g DMG/kg feed): 0.7^cd %
- Mortality ([2]; 0.5 g DMG/kg feed): 2.5^d %
- Non-selected pigs (lights and culls) ([2]; 0.5 g DMG/kg feed): 9.4%
- Pigs sold to primary market ([2]; 0.5 g DMG/kg feed): 87.4%
- ADFI ([2]; 1.0 g DMG/kg feed): 2.99^ab kg/day
- Carcass yield ([2]; 1.0 g DMG/kg feed): 73.8%
- Closeout ADG ([2]; 1.0 g DMG/kg feed): 0.97^xy kg/day
- Closeout G/F ([2]; 1.0 g DMG/kg feed): 0.323
- End BW ([2]; 1.0 g DMG/kg feed): 125.8 kg
- Fat depth ([2]; 1.0 g DMG/kg feed): 16.8 mm
- Fat-free carcass lean ([2]; 1.0 g DMG/kg feed): 56.0%
- Hot carcass weight ([2]; 1.0 g DMG/kg feed): 94.2 kg
- Loin depth ([2]; 1.0 g DMG/kg feed): 61.7 mm
- Morbidity ([2]; 1.0 g DMG/kg feed): 2.2^d %
- Mortality ([2]; 1.0 g DMG/kg feed): 1.4^cd %
- Non-selected pigs (lights and culls) ([2]; 1.0 g DMG/kg feed): 6.5%
- Pigs sold to primary market ([2]; 1.0 g DMG/kg feed): 90.0%
- Growth performance and livability compared with Control ([2]; DMG at 0.5 and 1.0 g/kg, P>0.10): not different compared with Control
- Closeout F/G, late finishing testing period (finishing pigs; DMG @ 0.5 lb/ton): 3.30
- Closeout F/G, late finishing testing period, % Change vs Control (finishing pigs; DMG @ 0.5 lb/ton): −4.6%
- Mortality, late finishing testing period, % Change vs Control (finishing pigs; DMG @ 0.5 lb/ton): −39.0%
- Reduction of morbidity compared to Control (finishing pigs; Na-DMG 0.50 lb/ton): 72%
- Reduction of total removal compared to Control (finishing pigs; Na-DMG 0.50 lb/ton): 53%
- Morbidity (finishing pigs; [4]): 0.36%
- Mortality (finishing pigs; [4]): 1.08%
- Non-selected (culls and lights) (finishing pigs; [4]): 5.48%
- Pigs sold to primary market (finishing pigs; [4]): 93.1%
- Total pigs finished (finishing pigs; [4]): 98.6%
- Total removal (finishing pigs; [4]): 1.44%
- Lameness (pigs removed to hospital pens due to lameness) (growing pigs; DMG_0.25 (0.25 lb DMG/ton feed), 17-wk): 0.3%^d
- Lameness (pigs removed to hospital pens due to lameness) (growing pigs; DMG_0.50 (0.50 lb DMG/ton feed), 17-wk): 0.7%^cd
- Lameness (pigs removed to hospital pens due to lameness) (growing pigs; DMG_0.75, 17-wk): 1.4%^cd
- Incidence of lameness compared to Control (growing pigs; regardless of dietary concentration, statistically (P<0.10) or numerically (P>0.10)): reduced incidence of lameness
- Nutrient digestibility (sows): improved nutrient digestibility
- Total milk fat, % (Day 10-14 in lactation) (sows (PIC 1050); 0.5 lb/ton from day 100 of gestation through lactation): 6.114%
- Total milk fat, % (Day 10-14 in lactation) (sows (PIC 1050); 0.5 lb/ton from farrowing through lactation): 5.973%
- Fat-free carcass lean ([3]; DMG at 0.25 lb/ton, P<0.10): tended to be improved
- 10th-rib backfat depth reduction (numerical) ([3]; DMG at 0.25 lb/ton): 3.4%
- Loin depth improvement compared to Control ([3]; DMG at 0.25 lb/ton): 2.5%
- 10th-rib backfat depth reduction (numerical) ([3]; DMG at 0.50 lb/ton): 2.3%
- Loin depth improvement compared to Control ([3]; DMG at 0.75 lb/ton): 3.5%
- Loin depth, response to increasing dietary DMG level ([3]; increasing dietary DMG level, P=0.04): linearly improved
